Reference: publication PMC6571673, “Cytostatic and Cytotoxic Natural Products against Cancer Cell Models” (Molecules, 2019)

Assays:
Assay type in all cases: cell-based, human
SUP-B15 = assay: Annexin V/PI apoptosis flow cytometry assay; details: SUP-B15, 24 h; 8 5 µM, 9 10 µM, 10 5 µM, 12 10 µM, 13 10 µM
Protocol: (§1) The samples were probed with AnnexinV-FITC (Roche/Boehringer Mannheim, Indianapolis, IN, USA) according to the manufacturer’s instructions. KOPN-8 or SUB-P15 cells were plated (1.00 × 10^6 cells/plate) and incubated for 12 h and incubated at 37 °C. Then, cells were treated with compounds or controls for 24 h. Cells were stained with AnnexinV-FITC, PI and the staining profiles were determined with FACScan and Cell-Quest software. For cellular DNA content, the same cell treatment as above was performed. Then, cells were fixed in cold 75% ethanol, treated with RNase and then stained with PI solution (50 µg/mL). Cell cycle distribution was analyzed with the FACSCalibur analyzer (BD Biosciences, Franklin Lakes, NJ, USA) and Cell-Quest software. The percentage of DNA content at different phases of the cell cycle was analyzed with ModFit-software (version 5.0, Verity Software House, Topsham, ME, USA).

KOPN-8 = assay: Annexin V/PI apoptosis flow cytometry assay; details: KOPN-8, 24 h; 8 5 µM, 9 10 µM, 10 5 µM, 12 10 µM, 13 10 µM
Protocol: as §1

[1] = system: de novo protein synthesis in MDA-MB-231; assay: EZClick in-cell-click de novo protein synthesis assay; details: MDA-MB-231, 2 h exposure time
Text: Protein synthesis is essential in cell growth, proliferation, signaling, differentiation, and death. […] The assay includes a robust chemical method based on an alkyne containing o-propargyl-puromycin probe, which stops translation by forming covalent conjugates with nascent polypeptide chains. Truncated polypeptides are rapidly turned over by the proteasome and can be detected based on the subsequent click reaction with a fluorescent azide. To test whether these compounds (4–14) induced de novo protein synthesis inhibition, compounds were tested for a 2 h exposure time, under the same conditions as the known protein synthesis inhibitor cycloheximide (CHX) in MDA-MB-231 cell model following an in-cell-click de novo protein synthesis assay.
Biovision’s EZClick™ protein synthesis monitoring assay kit (EZClick™ Global Protein Synthesis Assay Kit, Catalog # K715-100, Milpitas, CA, USA) was used according to manufacturer’s protocol. The assay was conducted in 8-well chambered coverslips (ibidi GmbH µ-slide # 80826, Martinsried, Germany). Cells were plated at 2 × 10^4 per well and incubated at 37 °C for 12 h. Then, the cells were treated with compounds for 1.5 h and processed and stained according to protocol (representative images shown in Figure 4). Protein synthesis activity is shown in red, DNA staining is shown in green. Cycloheximide (CHX) was used as a positive control and DMSO as the negative control. Images shown were taken with a Marianas CSU-X spinning disk confocal imaging system (3i, Denver, CO, USA) configured with a Zeiss Axio Observer microscope (Carl Zeiss Inc., Thornwood, NY, USA) with diode lasers, at 63× magnification and resolution of 512 × 512 pixels (3i). For each field of view, an image stack consisting of 20 optical sections were taken at 63× magnification. The total intensity of red and green staining was quantified for the entire image stack. Six fields of view were analyzed per condition. Images shown represent a single optical section for each field of view. For each stack, the red intensity (protein synthesis) was adjusted to the green intensity (DNA content) in each image. The numbers from six images were used to calculate the average and standard deviation for each condition. Numbers were normalized to the negative control value arbitrarily set to one. The Slide viewer 6 software package was used for rendering and analysis of the images.

Structure (SMILES): COC1=C[C@]23CCCN2CCc2cc4c(cc2[C@@H]3[C@@H]1O)OCO4 [Compound 9, cephalotaxine]
- live cells (Annexin-, PI-) (SUP-B15): small decrease in live cells
- live cells (Annexin-, PI-) (KOPN-8): small decrease in live cells
- concentration at which de novo protein synthesis is inhibited [1]: 10 µM
